# Data reported in PubChem BioAssay AID1963844 (Molecular Pharmacology Branch, DTP, NCI, 2024).
# System: 422866-222-R5-J1-PDC complex spheroid viability
# Test: Anticancer human tumor 422866-222-R5-J1-PDC patient-derived pancreatic adenocarcinoma cell line growth inhibition [POLQ]
# Conditions: for IC50: curve of first compound; for viability, T/C: stronger effect = lower value
# Outline: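 Complex spheroid viability model combining PDC tumour cells with endothelial (HUVEC) and MSC stromal cells. Novobiocin, ART-558 or RP6685 were tested singly and in combination with standard and investigational anticancer drugs. Each was titrated in half-log steps from near clinical Cmax, or from 10 microM where Cmax was unknown.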
# [1] = second compound 0.0316 µM, first compound 0.0316 µM
# [2] = second compound 0.0316 µM, first compound 0.1 µM
# [3] = second compound 0.0316 µM, first compound 0.316 µM
# [4] = second compound 0.0316 µM, first compound 1 µM
# [5] = second compound 0.0316 µM, first compound 3.16 µM
# [6] = second compound 0.0316 µM, first compound 10 µM
# [7] = second compound 0.1 µM, first compound 0.0316 µM
# [8] = second compound 0.1 µM, first compound 0.1 µM
# [9] = second compound 0.1 µM, first compound 0.316 µM
# [10] = second compound 0.1 µM, first compound 1 µM
# [11] = second compound 0.1 µM, first compound 3.16 µM
# [12] = second compound 0.1 µM, first compound 10 µM
# [13] = second compound 0.316 µM, first compound 0.0316 µM
# [14] = second compound 0.316 µM, first compound 0.1 µM
# [15] = second compound 0.316 µM, first compound 0.316 µM
# [16] = second compound 0.316 µM, first compound 1 µM
# [17] = second compound 0.316 µM, first compound 3.16 µM
# [18] = second compound 0.316 µM, first compound 10 µM
# [19] = second compound 1 µM, first compound 0.0316 µM
# [20] = second compound 1 µM, first compound 0.1 µM
# [21] = second compound 1 µM, first compound 0.316 µM
# [22] = second compound 1 µM, first compound 1 µM
# [23] = second compound 1 µM, first compound 3.16 µM
# [24] = second compound 1 µM, first compound 10 µM
# [25] = second compound 3.16 µM, first compound 0.0316 µM
# [26] = second compound 3.16 µM, first compound 0.1 µM
# [27] = second compound 3.16 µM, first compound 0.316 µM
# [28] = second compound 3.16 µM, first compound 1 µM
# [29] = second compound 3.16 µM, first compound 3.16 µM
# [30] = second compound 3.16 µM, first compound 10 µM
# [31] = second compound 10 µM, first compound 0.0316 µM
# [32] = second compound 10 µM, first compound 0.1 µM
# [33] = second compound 10 µM, first compound 0.316 µM
# [34] = second compound 10 µM, first compound 1 µM
# [35] = second compound 10 µM, first compound 3.16 µM
# [36] = second compound 10 µM, first compound 10 µM
# 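Note: spheroids exposed to compounds for one week before readout.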
# 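Throughout, for viability, T/C: percent of DMSO vehicle wells luminescence so 100% = untreated viability.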
smiles,measurement,setting,value
CC(=O)O[C@H]1C(=O)[C@@]2(C)[C@H]([C@H](OC(=O)c3ccccc3)[C@]3(O)C[C@H](OC(=O)[C@H](O)[C@@H](NC(=O)c4ccccc4)c4ccccc4)C(C)=C1C3(C)C)[C@]1(OC(C)=O)CO[C@@H]1C[C@@H]2O + Nc1ccc(C#CCN(C(=O)Cc2ncc(C(F)(F)F)cc2C(F)(F)F)c2ccc(F)cc2)nn1,IC50,second compound 0.0316 µM,> 3 µM
same,IC50,second compound 0.1 µM,> 3 µM
same,IC50,second compound 0.316 µM,< 0.00949 µM
same,IC50,second compound 1 µM,> 3 µM
same,IC50,second compound 3.16 µM,< 0.00949 µM
same,IC50,second compound 10 µM,> 3 µM
same,"viability, T/C","second compound 0.0316 µM, first compound 0.00949 µM",60.5%
same,"viability, T/C","second compound 0.0316 µM, first compound 0.03 µM",56%
same,"viability, T/C","second compound 0.0316 µM, first compound 0.0949 µM",48.5%
same,"viability, T/C","second compound 0.0316 µM, first compound 0.3 µM",51.8%
same,"viability, T/C","second compound 0.0316 µM, first compound 0.949 µM",61.9%
same,"viability, T/C","second compound 0.0316 µM, first compound 3 µM",63.6%
same,"viability, T/C","second compound 0.1 µM, first compound 0.00949 µM",56.8%
same,"viability, T/C","second compound 0.1 µM, first compound 0.03 µM",58.3%
same,"viability, T/C","second compound 0.1 µM, first compound 0.0949 µM",53.6%
same,"viability, T/C","second compound 0.1 µM, first compound 0.3 µM",46.4%
same,"viability, T/C","second compound 0.1 µM, first compound 0.949 µM",53%
same,"viability, T/C","second compound 0.1 µM, first compound 3 µM",65.4%
same,"viability, T/C","second compound 0.316 µM, first compound 0.00949 µM",53.3%
same,"viability, T/C","second compound 0.316 µM, first compound 0.03 µM",43.9%
same,"viability, T/C","second compound 0.316 µM, first compound 0.0949 µM",51.4%
same,"viability, T/C","second compound 0.316 µM, first compound 0.3 µM",53.4%
same,"viability, T/C","second compound 0.316 µM, first compound 0.949 µM",57%
same,"viability, T/C","second compound 0.316 µM, first compound 3 µM",69.5%
same,"viability, T/C","second compound 1 µM, first compound 0.00949 µM",59.8%
same,"viability, T/C","second compound 1 µM, first compound 0.03 µM",46.4%
same,"viability, T/C","second compound 1 µM, first compound 0.0949 µM",50.6%
same,"viability, T/C","second compound 1 µM, first compound 0.3 µM",51.9%
same,"viability, T/C","second compound 1 µM, first compound 0.949 µM",56.8%
same,"viability, T/C","second compound 1 µM, first compound 3 µM",65.7%
same,"viability, T/C","second compound 3.16 µM, first compound 0.00949 µM",56.1%
same,"viability, T/C","second compound 3.16 µM, first compound 0.03 µM",46.7%
same,"viability, T/C","second compound 3.16 µM, first compound 0.0949 µM",46.4%
same,"viability, T/C","second compound 3.16 µM, first compound 0.3 µM",47.8%
same,"viability, T/C","second compound 3.16 µM, first compound 0.949 µM",74.8%
same,"viability, T/C","second compound 3.16 µM, first compound 3 µM",66.1%
same,"viability, T/C","second compound 10 µM, first compound 0.00949 µM",55.3%
same,"viability, T/C","second compound 10 µM, first compound 0.03 µM",55.8%
same,"viability, T/C","second compound 10 µM, first compound 0.0949 µM",54%
same,"viability, T/C","second compound 10 µM, first compound 0.3 µM",65.8%
same,"viability, T/C","second compound 10 µM, first compound 0.949 µM",52.6%
same,"viability, T/C","second compound 10 µM, first compound 3 µM",75%
CC1COCCN1c1cc(C2(O)CC3CCC(C2)O3)c2cnn(-c3ccn[nH]3)c2n1 (stereo unspecified) + Cc1cccc(N(C)C(=O)C2C(O)CCN2c2nc(C)cc(C(F)(F)F)c2C#N)c1,IC50,second compound 0.0316 µM,> 10 µM
same,IC50,second compound 0.1 µM,> 10 µM
same,IC50,second compound 0.316 µM,> 10 µM
same,IC50,second compound 1 µM,> 10 µM
same,IC50,second compound 3.16 µM,0.0316 µM
same,IC50,second compound 10 µM,> 10 µM
same,"viability, T/C",[1],87.5%
same,"viability, T/C",[2],42.3%
same,"viability, T/C",[3],44.2%
same,"viability, T/C",[4],85.3%
same,"viability, T/C",[5],70.9%
same,"viability, T/C",[6],73.2%
same,"viability, T/C",[7],75.1%
same,"viability, T/C",[8],55.5%
same,"viability, T/C",[9],52.2%
same,"viability, T/C",[10],79.2%
same,"viability, T/C",[11],68.8%
same,"viability, T/C",[12],72.2%
same,"viability, T/C",[13],72.5%
same,"viability, T/C",[14],40.9%
same,"viability, T/C",[15],52.5%
same,"viability, T/C",[16],70.3%
same,"viability, T/C",[17],80.7%
same,"viability, T/C",[18],74.7%
same,"viability, T/C",[19],77.8%
same,"viability, T/C",[20],44.7%
same,"viability, T/C",[21],51.3%
same,"viability, T/C",[22],70.6%
same,"viability, T/C",[23],71.3%
same,"viability, T/C",[24],92.5%
same,"viability, T/C",[25],74.8%
same,"viability, T/C",[26],48.1%
same,"viability, T/C",[27],41.1%
same,"viability, T/C",[28],95.4%
same,"viability, T/C",[29],78.2%
same,"viability, T/C",[30],79%
same,"viability, T/C",[31],76.2%
same,"viability, T/C",[32],45.2%
same,"viability, T/C",[33],54.3%
same,"viability, T/C",[34],85.3%
same,"viability, T/C",[35],82.4%
same,"viability, T/C",[36],82.6%
CCc1cc2c(N3CCc4c(cc(Cn5ccnc5)cc4-c4cn(C)nc4C(F)(F)F)C3=O)ccnc2c(OC)n1 + Cc1cccc(N(C)C(=O)C2C(O)CCN2c2nc(C)cc(C(F)(F)F)c2C#N)c1,IC50,second compound 0.0316 µM,> 10 µM
same,IC50,second compound 0.1 µM,> 10 µM
same,IC50,second compound 0.316 µM,> 10 µM
same,IC50,second compound 1 µM,> 10 µM
same,IC50,second compound 3.16 µM,> 10 µM
same,IC50,second compound 10 µM,> 10 µM
same,"viability, T/C",[1],96.1%
same,"viability, T/C",[2],99.6%
same,"viability, T/C",[3],93.3%
same,"viability, T/C",[4],88.2%
same,"viability, T/C",[5],87.6%
same,"viability, T/C",[6],91.8%
same,"viability, T/C",[7],88.4%
same,"viability, T/C",[8],87.9%
same,"viability, T/C",[9],83.5%
same,"viability, T/C",[10],112%
same,"viability, T/C",[11],91.4%
same,"viability, T/C",[12],99.2%
same,"viability, T/C",[13],90.7%
same,"viability, T/C",[14],84.7%
same,"viability, T/C",[15],91.7%
same,"viability, T/C",[16],96.3%
same,"viability, T/C",[17],96.2%
same,"viability, T/C",[18],112%
same,"viability, T/C",[19],73%
same,"viability, T/C",[20],80.2%
same,"viability, T/C",[21],86.1%
same,"viability, T/C",[22],98.2%
same,"viability, T/C",[23],97.7%
same,"viability, T/C",[24],114%
same,"viability, T/C",[25],87.4%
same,"viability, T/C",[26],87.6%
same,"viability, T/C",[27],89.5%
same,"viability, T/C",[28],85.4%
same,"viability, T/C",[29],108%
same,"viability, T/C",[30],115%
same,"viability, T/C",[31],100%
same,"viability, T/C",[32],94.2%
same,"viability, T/C",[33],90.7%
same,"viability, T/C",[34],93.5%
same,"viability, T/C",[35],107%
same,"viability, T/C",[36],105%
